Data from ChEMBL document CHEMBL5113410, “Novel flavonoid hybrids as potent antiviral agents against hepatitis A: Design, synthesis and biological evaluation” (Eur J Med Chem, 2022).
Activity calls are given as the source filed them. The rule behind the calls is not given here.

Tests used:
[1] = tested on: Hepatovirus A; assay: Antiviral activity against hepatitis A virus TICM005 infected in human Huh-7.5.1 cells assessed as reduction in cytoplasmic viral RNA level at 5 to 20 uM incubated for 72 hrs dosed after infection for 6 hrs by RT-qPCR method; type: functional, organism-based; settings: TICM005, Huh-7.5.1
[2] = tested on: Hepatovirus A; assay: Antiviral activity against hepatitis A virus genotype 1b infected in human Huh-7.5.1 cells assessed as reduction in virus production at 10 uM incubated for 72 hrs after 6 hrs HAV/NLuc infection by Nano-Glo luciferase assay; type: functional, organism-based
[3] = tested on: Hepatovirus A; assay: Antiviral activity against hepatitis A virus KRM031 infected in human Huh-7.5.1 cells assessed as reduction in cytoplasmic viral RNA level at 5 to 20 uM incubated for 72 hrs dosed after infection for 6 hrs by RT-qPCR method; type: functional, organism-based; settings: KRM031, Huh-7.5.1
[4] = tested on: Huh7.5.1; assay: Cytotoxicity in human Huh-7.5.1 cells assessed as reduction in cell viability at 10 uM incubated for 72 hrs by CellTiter-Glo luminescent cell viability assay; type: toxicity, cell-based; settings: huh7.5.1, 72 h
[5] = tested on: Hepatovirus A; assay: Antiviral activity against hepatitis A virus genotype 1b infected in human Huh-7.5.1 cells assessed as reduction in virus production at 10 uM incubated for 72 hrs by Nano-Glo luciferase assay; type: functional, organism-based
[6] = tested on: Hepatovirus A; assay: Antiviral activity against hepatitis A virus infected in human Huh-7.5.1 cells assessed as reduction in viral RNA replication at 2 to 50 uM incubated for 72 hrs by luciferase reporter dependent subgenomic replicon assay; type: functional; settings: dose 2-50 µM
[7] = tested on: Hepatovirus A; assay: Antiviral activity against hepatitis A virus HM175 infected in human Huh-7.5.1 cells assessed as reduction in HAV2c Protein expression at 10 uM incubated for 48 hrs by immunofluorescence assay; type: functional, organism-based
[8] = Cytotoxicity in human Huh-7.5.1 cells assessed as reduction in cell viability incubated for 72 hrs by CellTiter-Glo luminescent cell viability assay; type: toxicity, cell-based, Huh7.5.1
[9] = Selectivity index, ratio of CC50 for Cytotoxicity in human Huh-7.5.1 cells to EC50 for Antiviral activity against hepatitis A virus genotype 1b infected in human Huh-7.5.1 cells; type: toxicity, cell-based; settings: read-out: Ratio CC50/EC50
[10] = tested on: Hepatovirus A; assay: Antiviral activity against hepatitis A virus HM175/18f infected in human Huh-7.5.1 cells assessed as reduction in HM175 production at 2 to 50 uM incubated for 72 hrs by RT-qPCR method; type: functional, organism-based; settings: dose 2-50 µM, DDE = dose-dependent effect
[11] = tested on: Hepatovirus A; assay: Antiviral activity against hepatitis A virus genotype 1b infected in human Huh-7.5.1 cells assessed as reduction in virus production incubated for 72 hrs by Nano-Glo luciferase assay; type: functional, organism-based; settings: for Activity: DDE = dose-dependent effect; for EC50: Huh-7.5.1, 72 h

Row | SMILES | EC50 [1] [µM] | inhibition [2] | EC50 [3] [µM] | Activity [4] | Activity [5] | inhibition (INH) [6] [%] | Activity [7] | CC50 at 72 h [8] [µM] | selectivity ratio [9] | inhibition [10] | Activity [11] | EC50 [11] [µM]
1 | COc1cc(OCC(=O)N/N=C/c2ccc(C)cc2)cc2c1CCC(c1cc(OC)c(OC)c(OC)c1)O2 (stereo unspecified) | > 20 | Active | > 20 | Non-Toxic | Active | 56.4 | Active | 103 | 11.1 | Dde | Dde | 9.3
2 | COc1cc(OCC(=O)N/N=C/c2ccc(Cl)c(Cl)c2)cc2c1CCC(c1cc(OC)c(OC)c(OC)c1)O2 (stereo unspecified) | – | – | – | Toxic | Active | – | – | – | – | – | – | –
3 | COc1cc(OCC(=O)N/N=C/c2ccc(Br)cc2)cc2c1CCC(c1cc(OC)c(OC)c(OC)c1)O2 (stereo unspecified) | > 20 | Active | > 20 | Non-Toxic | Active | 93 | Active | 152 | 25 | Dde | Dde | 6.1
4 | COc1cc(OCC(=O)N/N=C(\C)c2ccccc2O)cc2c1CCC(c1cc(OC)c(OC)c(OC)c1)O2 (stereo unspecified) | – | – | – | Toxic | Active | – | – | – | – | – | – | –
5 | COc1cc(OCC(=O)N/N=C/c2ccc(Cl)c(O)c2)cc2c1CCC(c1cc(OC)c(OC)c(OC)c1)O2 (stereo unspecified) | – | – | – | Toxic | Active | – | – | – | – | – | – | –
6 | COc1cc(OCC(=O)N/N=C/c2ccc(Cl)s2)cc2c1CCC(c1cc(OC)c(OC)c(OC)c1)O2 (stereo unspecified) | 11.7 | Active | 8.5 | Non-Toxic | Active | 98.1 | Active | 83.3 | 15.7 | Dde | Dde | 5.3
7 | COc1cc(OCC(=O)N/N=C/c2ccc(Cl)cc2)cc2c1CCC(c1cc(OC)c(OC)c(OC)c1)O2 (stereo unspecified) | 14.2 | Active | 13.1 | Non-Toxic | Active | 98.3 | Active | 89.8 | 16.3 | Dde | Dde | 5.5
8 | COc1ccc(/C=N/NC(=O)COc2cc(OC)c3c(c2)OC(c2cc(OC)c(OC)c(OC)c2)CC3)cc1 (stereo unspecified) | – | – | – | Toxic | Active | – | – | – | – | – | – | –
